Test system: Brain
Assay: Biodistribution in S180 tumor-bearing KM mouse brain assessed per gram of tissue at 240 to 370 kBq, iv after 15 mins
Format: ADME, organism-based
Details: in vivo, 0.25 h

Drug uptake [%ID] | SMILES
0.09 | CC(C)[C@H](NC(=O)c1ccc([N+](=O)[O-])cc1[18F])C(=O)O

Test system: Brain
Assay: Biodistribution in S180 tumor-bearing KM mouse brain assessed per gram of tissue at 240 to 370 kBq, iv after 5 mins
Format: ADME, organism-based
Details: in vivo

Drug uptake [%ID] | SMILES
0.15 | CC(C)[C@H](NC(=O)c1ccc([N+](=O)[O-])cc1[18F])C(=O)O

Test system: Spleen
Assay: Biodistribution in S180 tumor-bearing KM mouse spleen assessed per gram of tissue at 240 to 370 kBq, iv after 60 mins
Format: ADME, organism-based
Details: in vivo, 1 h

Drug uptake [%ID] | SMILES
0.24 | CC(C)[C@H](NC(=O)c1ccc([N+](=O)[O-])cc1[18F])C(=O)O

Test system: Spleen
Assay: Biodistribution in S180 tumor-bearing KM mouse spleen assessed per gram of tissue at 240 to 370 kBq, iv after 30 mins
Format: ADME, organism-based
Details: in vivo, 0.5 h

Drug uptake [%ID] | SMILES
0.31 | CC(C)[C@H](NC(=O)c1ccc([N+](=O)[O-])cc1[18F])C(=O)O

Test system: Spleen
Assay: Biodistribution in S180 tumor-bearing KM mouse spleen assessed per gram of tissue at 240 to 370 kBq, iv after 15 mins
Format: ADME, organism-based
Details: in vivo, 0.25 h

Drug uptake [%ID] | SMILES
0.6 | CC(C)[C@H](NC(=O)c1ccc([N+](=O)[O-])cc1[18F])C(=O)O

Test system: Spleen
Assay: Biodistribution in S180 tumor-bearing KM mouse spleen assessed per gram of tissue at 240 to 370 kBq, iv after 5 mins
Format: ADME, organism-based
Details: in vivo

Drug uptake [%ID] | SMILES
1.04 | CC(C)[C@H](NC(=O)c1ccc([N+](=O)[O-])cc1[18F])C(=O)O

Test system: Muscle tissue
Assay: Biodistribution in S180 tumor-bearing KM mouse muscle assessed per gram of tissue at 240 to 370 kBq, iv after 60 mins
Format: ADME, organism-based
Details: in vivo, 1 h

Drug uptake [%ID] | SMILES
0.15 | CC(C)[C@H](NC(=O)c1ccc([N+](=O)[O-])cc1[18F])C(=O)O

Test system: Muscle tissue
Assay: Biodistribution in S180 tumor-bearing KM mouse muscle assessed per gram of tissue at 240 to 370 kBq, iv after 5 mins
Format: ADME, organism-based
Details: in vivo

Drug uptake [%ID] | SMILES
0.99 | CC(C)[C@H](NC(=O)c1ccc([N+](=O)[O-])cc1[18F])C(=O)O

Test system: Kidney
Assay: Biodistribution in S180 tumor-bearing KM mouse kidney assessed per gram of tissue at 240 to 370 kBq, iv after 120 mins
Format: ADME, organism-based
Details: in vivo, 2 h

Drug uptake [%ID] | SMILES
0.3 | CC(C)[C@H](NC(=O)c1ccc([N+](=O)[O-])cc1[18F])C(=O)O

Test system: Kidney
Assay: Biodistribution in S180 tumor-bearing KM mouse kidney assessed per gram of tissue at 240 to 370 kBq, iv after 60 mins
Format: ADME, organism-based
Details: in vivo, 1 h

Drug uptake [%ID] | SMILES
0.45 | CC(C)[C@H](NC(=O)c1ccc([N+](=O)[O-])cc1[18F])C(=O)O

Test system: Kidney
Assay: Biodistribution in S180 tumor-bearing KM mouse kidney assessed per gram of tissue at 240 to 370 kBq, iv after 30 mins
Format: ADME, organism-based
Details: in vivo, 0.5 h

Drug uptake [%ID] | SMILES
1.36 | CC(C)[C@H](NC(=O)c1ccc([N+](=O)[O-])cc1[18F])C(=O)O

Test system: Kidney
Assay: Biodistribution in S180 tumor-bearing KM mouse kidney assessed per gram of tissue at 240 to 370 kBq, iv after 15 mins
Format: ADME, organism-based
Details: in vivo, 0.25 h

Drug uptake [%ID] | SMILES
5.19 | CC(C)[C@H](NC(=O)c1ccc([N+](=O)[O-])cc1[18F])C(=O)O

Test system: Kidney
Assay: Biodistribution in S180 tumor-bearing KM mouse kidney assessed per gram of tissue at 240 to 370 kBq, iv after 5 mins
Format: ADME, organism-based
Details: in vivo

Drug uptake [%ID] | SMILES
11.9 | CC(C)[C@H](NC(=O)c1ccc([N+](=O)[O-])cc1[18F])C(=O)O

Test system: Lung
Assay: Biodistribution in S180 tumor-bearing KM mouse lung assessed per gram of tissue at 240 to 370 kBq, iv after 120 mins
Format: ADME, organism-based
Details: in vivo, 2 h

Drug uptake [%ID] | SMILES
0.57 | CC(C)[C@H](NC(=O)c1ccc([N+](=O)[O-])cc1[18F])C(=O)O

Test system: Lung
Assay: Biodistribution in S180 tumor-bearing KM mouse lung assessed per gram of tissue at 240 to 370 kBq, iv after 60 mins
Format: ADME, organism-based
Details: in vivo, 1 h

Drug uptake [%ID] | SMILES
1.14 | CC(C)[C@H](NC(=O)c1ccc([N+](=O)[O-])cc1[18F])C(=O)O

Test system: Lung
Assay: Biodistribution in S180 tumor-bearing KM mouse lung assessed per gram of tissue at 240 to 370 kBq, iv after 30 mins
Format: ADME, organism-based
Details: in vivo, 0.5 h

Drug uptake [%ID] | SMILES
1.38 | CC(C)[C@H](NC(=O)c1ccc([N+](=O)[O-])cc1[18F])C(=O)O

Test system: Lung
Assay: Biodistribution in S180 tumor-bearing KM mouse lung assessed per gram of tissue at 240 to 370 kBq, iv after 15 mins
Format: ADME, organism-based
Details: in vivo, 0.25 h

Drug uptake [%ID] | SMILES
2.01 | CC(C)[C@H](NC(=O)c1ccc([N+](=O)[O-])cc1[18F])C(=O)O

Test system: Lung
Assay: Biodistribution in S180 tumor-bearing KM mouse lung assessed per gram of tissue at 240 to 370 kBq, iv after 5 mins
Format: ADME, organism-based
Details: in vivo

Drug uptake [%ID] | SMILES
5.04 | CC(C)[C@H](NC(=O)c1ccc([N+](=O)[O-])cc1[18F])C(=O)O

Test system: Liver
Assay: Biodistribution in S180 tumor-bearing KM mouse liver assessed per gram of tissue at 240 to 370 kBq, iv after 120 mins
Format: ADME, organism-based
Details: in vivo, 2 h

Drug uptake [%ID] | SMILES
0.5 | CC(C)[C@H](NC(=O)c1ccc([N+](=O)[O-])cc1[18F])C(=O)O

Test system: Liver
Assay: Biodistribution in S180 tumor-bearing KM mouse liver assessed per gram of tissue at 240 to 370 kBq, iv after 60 mins
Format: ADME, organism-based
Details: in vivo, 1 h

Drug uptake [%ID] | SMILES
0.77 | CC(C)[C@H](NC(=O)c1ccc([N+](=O)[O-])cc1[18F])C(=O)O

Test system: Liver
Assay: Biodistribution in S180 tumor-bearing KM mouse liver assessed per gram of tissue at 240 to 370 kBq, iv after 30 mins
Format: ADME, organism-based
Details: in vivo, 0.5 h

Drug uptake [%ID] | SMILES
1.59 | CC(C)[C@H](NC(=O)c1ccc([N+](=O)[O-])cc1[18F])C(=O)O

Reference: ChEMBL document CHEMBL1154040, “Synthesis and evaluation of novel F-18 labeled fluoroarylvaline derivatives: potential PET imaging agents for tumor detection” (Bioorg Med Chem Lett, 2009)
